Experimental data published in US8383608B2, “Imidazolidine compounds as androgen receptor modulators” (Dart Therapeutics LLC, priority 2008, dated 2013).

Key:
[1] = Determination of absolute bioavailability (restricted PK profile, oral and intravenous); format: in vivo; conditions: male, Sprague-Dawley, rat, plasma, po, 10 mg/kg, absolute bioavailability (F), male Sprague Dawley rats, oral 10 mg/kg AUC(0-6 h) vs intravenous 3 mg/kg AUC(0-3 h); read-out: Bioavailability
Description: To screen rapidly imidazolidines derivatives based on their absolute bioavailabity, restricted pharmacokinetic profile with only fours sampling time points after oral and intravenous route is investigated in Sprague Dawley rats as follows: each test compound is dosed orally (10 mg/kg) and intravenously (3 mg/kg) to groups of 3 male Sprague Dawley rats. Oral doses are administered as solution in EtOH/PEG400/H2O (1/79/20; v/v) by esophageal gavage (2 mg/mL; 5 mL/kg) and intravenous dose is given as solution in DMSO/PEG400/H2O (1/65/34; v/v) as a bolus in the tail vein (3 mg/mL; 1 mL/kg). Before oral dosing, animals are deprived of food (water ad libitum) for at least 16 hours before the start of the study and 6 hours after administration.
Blood is collected at the retro-orbital sinus into polypropylene tubes (Li-heparinate) at +4° C. at the following sampling-times: 0.083, 0.25, 1 and 3 h after intravenous injection and 0.25, 1, 3 and 6 hours after oral dosing. Three (3) animals are sampled per time-point; each animal being sampled four times. After centrifugation at 5000 rpm for 10 min at +4° C., plasma is collected into polypropylene tubes and kept frozen at −20° C. pending assays. Plasma samples are assayed by a LC-MS/MS method with a lower limit of quantification of 1 to 10 ng/mL depending on the compound (volume of plasma: 100 μL).
A LC-MS/MS method for quantification in heparinized plasma was developed for each test compound. Sample preparation consists of a precipitation of plasma proteins with methanol and filtration by centrifugation of supernatant on Captiva deep-well 96 0.2 μm filter plates. Water was added to methanol supernatant phase prior to analysis by liquid chromatography (Pursuit 5 C18 20×2.0 mm VARIAN, 2 μL loop, gradient Water/Methanol (90/10 to 0/100) over 1.7 min) with turboionspray tandem mass spectrometry (API4000) in negative mode using multiple reaction monitoring. The method includes 8 standard and 3 quality control levels with lower limit of quantification corresponding to first standard level.
Exposures are determined using a non compartmental model (WinNonLin 2.1) and the absolute bioavailability (F) is calculated as follows: [AUC(0-6 h) oral*3 mg/kg]/AUC(0-3 h) IV 10 mg/kg] and expressed in percentage.

[2] = molecular target: T1, human androgen receptor (hAR) (Homo sapiens, UniProt P10275); experiment: Functional response (transactivation) test in HALP2 cells (HeLa stably expressing hAR and ARE-luciferase reporter); format: cell-based; conditions: HALP2 cells; for Emax: HeLa, maximal activation by the compound compared with DHT alone (100%), read-out: % effect relative to DHT (100%); for EC50: agonism: concentration inducing 50% of the maximum agonistic effect of the tested compound, 24 hours, read-out: EC50
T1 construct: expressed in transfected cells
T1 sequence (P10275 1-920): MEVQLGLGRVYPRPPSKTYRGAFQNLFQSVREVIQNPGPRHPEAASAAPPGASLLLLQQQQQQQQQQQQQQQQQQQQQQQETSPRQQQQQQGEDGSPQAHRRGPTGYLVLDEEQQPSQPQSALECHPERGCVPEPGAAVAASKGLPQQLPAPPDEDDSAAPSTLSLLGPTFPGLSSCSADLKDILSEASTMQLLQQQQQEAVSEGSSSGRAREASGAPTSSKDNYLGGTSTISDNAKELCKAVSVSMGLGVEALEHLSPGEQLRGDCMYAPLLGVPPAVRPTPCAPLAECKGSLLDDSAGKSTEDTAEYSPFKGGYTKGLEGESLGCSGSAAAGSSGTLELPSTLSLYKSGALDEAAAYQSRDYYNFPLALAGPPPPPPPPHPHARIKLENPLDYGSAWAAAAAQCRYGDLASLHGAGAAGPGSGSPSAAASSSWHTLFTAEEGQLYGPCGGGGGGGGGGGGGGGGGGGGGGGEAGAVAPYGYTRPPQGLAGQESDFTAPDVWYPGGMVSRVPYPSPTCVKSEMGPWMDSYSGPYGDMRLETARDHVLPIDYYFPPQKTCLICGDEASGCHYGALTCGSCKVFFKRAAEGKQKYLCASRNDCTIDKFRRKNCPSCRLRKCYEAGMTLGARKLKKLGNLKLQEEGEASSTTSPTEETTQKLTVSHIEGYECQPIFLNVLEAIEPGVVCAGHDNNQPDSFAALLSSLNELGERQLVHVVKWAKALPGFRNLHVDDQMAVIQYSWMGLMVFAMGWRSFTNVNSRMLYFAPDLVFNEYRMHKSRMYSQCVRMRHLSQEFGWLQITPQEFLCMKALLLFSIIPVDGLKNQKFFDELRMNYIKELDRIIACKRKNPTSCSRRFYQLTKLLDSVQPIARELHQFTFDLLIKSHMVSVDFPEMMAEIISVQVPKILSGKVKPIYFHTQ

Structure (SMILES) | bioavailability [1] | Emax [2] | EC50 [2]
CN1C(=O)N(c2ccc(C#N)c(C(F)(F)F)c2)C(=O)C1(CO)c1ccc(Cl)cc1 (stereo not drawn) [Example 7, 4-[4-(4-Chlorophenyl)-2,5-dioxo-4-hydroxymethyl-3-methyl-imidazolidin-1-yl)-2-trifluoromethylbenzonitrile] | > 90% | 21 to 40% | 101 to 500 nM
CN1C(=O)N(c2ccc(C#N)c(C(F)(F)F)c2)C(=O)[C@@]1(CO)c1ccccc1 [Example 10, (S)-4-[2,5-Dioxo-4-(hydroxymethyl)-3-methyl-4-phenylimidazolidin-1-yl]-2-trifluoromethylbenzonitrile] | > 90% | 21 to 40% | 11 to 100 nM
CCN1C(=O)N(c2ccc(C#N)c(C(F)(F)F)c2)C(=O)C1(CO)c1ccccc1 (stereo not drawn) [Example 12, 4-[2,5-Dioxo-3-ethyl-4-(hydroxymethyl)-4-phenylimidazolidin-1-yl]-2-trifluoromethylbenzonitrile] | 50 to 90% | 21 to 40% | 0.01 to 10 nM
